Assay results reported in USRE38425E1, “Semicarbazones having CNS activity and pharmaceutical preparations containing same” (University of Saskatchewan Technologies, Inc., priority 1995, dated 2004).
Where two headings read alike, the source gives them in different places.

Key:
kindled rat = kindled rat test (corneal kindled rat screen); type: in vivo, rats; conditions: for protection in the corneal kindled rat screen: in vivo
Text: Particularly preferred compounds according to the present invention are 4-(4′-fluorophenoxy)benzaldehyde semicarbazone and 4-(thiophenoxy)benzaldehyde semicarbazone. […] Incidentally, the kindled rat screen is described by R. J. Racine in “Modification of Seizure Activity by Electrical Stimulation. II. Motor Seizure”, Electroencephalogr.Clin.Neurophysiol., 1972, 32, 281-294, and by G. Skeen et al. In “Development of Kindled Seizures Following Electrical Stimulation via the Cornea”, Soc.Neurosci., 1990, 16(1), 307; the disclosures of which are incorporated herein by reference.
The kindled rat test was undertaken by reported procedures (as indicated above). Compound 4b was administered orally and the animals challenged with electrical stimuli 2h later. The ED50 is the dose required to reduce seizures from stage 5 to stage 3 or less and these stages are described as follows namely stage 1 is mouth and facial clonus, stage 2 is stage 1 plus head nodding, stage 3 is stage 2 plus forelimb clonus, stage 4 is stage 3 plus rearing and stage 5 is stage 4 plus repeated rearing and falling.

mice [1] = experiment: MES screen after intraperitoneal injection in mice; type: in vivo; conditions: intraperitoneal injection in mice, time t (h) per compound as in the table
mice [2] = conditions: for acPTZ screen ED50: intraperitoneal injection in mice, time t (h) per compound as in the table
mice [3] = test system: mice
rats [4] = experiment: MES screen after oral administration to rats; conditions: for MES screen 0.25 h: number of rats out of 4 which were protected / MES screen 0.5 h: number of rats out of 4 which were protected / MES screen 1 h: number of rats out of 4 which were protected / MES screen 2 h: number of rats out of 4 which were protected / MES screen 4 h: number of rats out of 4 which were protected / MES screen ED50: oral administration to rats; for MES screen ED50: time t (h) per compound as in the table
rats [5] = experiment: neurotoxicity screen after oral administration to rats; conditions: oral administration to rats; time t (h) per compound as in the table
rats [6] = experiment: scPTZ screen after oral administration to rats
Method: Initially doses of 50 mg/kg of the semicarbazones were administered.

[7] = doses indicated in Table 1, after 0.5 h
[8] = doses indicated in Table 1, after 1 h
[9] = doses indicated in Table 1, after 4 h
[10] = intraperitoneal injection in mice, time t (h) per compound as in the table
[11] = doses indicated in Table 1, after 2 h

NC(=O)NN=Cc1ccc(Oc2ccc(F)cc2)cc1 [4-(4′-fluorophenoxy)benzaldehyde semicarbazone]
protection in the corneal kindled rat screen (kindled rat): afford protection

NC(=O)NN=Cc1ccc(Sc2ccccc2)cc1 [4-(thiophenoxy)benzaldehyde semicarbazone]
protection in the corneal kindled rat screen (kindled rat): afford protection

NC(=O)N1c2ccccc2C=Cc2ccccc21 [Carbamazepine, reference compound]
ED50 (mice [1]; Mus musculus, ip, read-out: MES screen ED50): 9.85 mg/kg | ED50 (kindled rat; Rattus norvegicus, read-out: ED50 (dose required to reduce seizures from stage 5 to stage 3 or less)): 28.9 mg/kg | acPTZ screen ED50 (mice [2]): >50 mg/kg | toxicity screen 0.5 h: minimum dose whereby bioactivity was demonstrated in half or more of the mice (mice [3]; mouse, in vivo, 0.5 h): 100 mg/kg | toxicity screen: minimum dose whereby bioactivity was demonstrated in half or more of the mice (mice [3]; mouse, in vivo, 0.5 h): 100 mg/kg | toxicity screen 4 h: minimum dose whereby bioactivity was demonstrated in half or more of the mice (mice [3]; mouse, in vivo, 4 h): 300 mg/kg | toxicity screen: minimum dose whereby bioactivity was demonstrated in half or more of the mice (mice [3]; mouse, in vivo, 4 h): 300 mg/kg | neurotoxicity screen TD50 (mice [3]; mouse, in vivo, ip): 47.8 mg/kg | ED50 (rats [4]; Rattus norvegicus, po, read-out: MES screen ED50 (mg/kg)): 3.57 mg/kg | neurotoxicity screen TD50 (rats [5]): 361 mg/kg

NC(=O)NN=Cc1ccc(Oc2ccc(I)cc2)cc1 [Compound 4e]
MES screen 0.25 h: number of rats out of 4 which were protected (rats [4]; dose 50 mg/kg): 3 | MES screen 0.5 h: number of rats out of 4 which were protected (rats [4]; dose 50 mg/kg): 4 | MES screen 1 h: number of rats out of 4 which were protected (rats [4]; dose 50 mg/kg): 4 | MES screen 2 h: number of rats out of 4 which were protected (rats [4]; dose 50 mg/kg): 4 | MES screen 4 h: number of rats out of 4 which were protected (rats [4]; dose 50 mg/kg): 4 | number of rats protected in the scPTZ screen (rats [6]; [7]): 1/4 | number of rats protected in the scPTZ screen (rats [6]; [8]): 1/4 | number of rats protected in the scPTZ screen (rats [6]; [9]): 1/4

Cc1ccc(Oc2ccc(C=NNC(N)=O)cc2)cc1 [Compound 4f]
MES screen ED50 (mice [1]): 14.65 mg/kg | acPTZ screen ED50 (mice [2]): 88.55 mg/kg | neurotoxicity screen TD50 (mice [3]; [10]): 203.73 mg/kg | MES screen 0.25 h: number of rats out of 4 which were protected (rats [4]; dose 50 mg/kg): 3 | MES screen 0.5 h: number of rats out of 4 which were protected (rats [4]; dose 50 mg/kg): 4 | MES screen 1 h: number of rats out of 4 which were protected (rats [4]; dose 50 mg/kg): 4 | MES screen 2 h: number of rats out of 4 which were protected (rats [4]; dose 50 mg/kg): 4 | MES screen 4 h: number of rats out of 4 which were protected (rats [4]; dose 50 mg/kg): 4 | MES screen ED50 (rats [4]): 3.43 mg/kg | neurotoxicity screen TD50 (rats [5]): >500 mg/kg

Cc1ccccc1Oc1ccc(C=NNC(N)=O)cc1 [Compound 5n]
MES screen 0.5 h: number of rats out of 4 which were protected (rats [4]; dose 12.5 mg/kg): 4 | MES screen 1 h: number of rats out of 4 which were protected (rats [4]; dose 12.5 mg/kg): 3 | MES screen 2 h: number of rats out of 4 which were protected (rats [4]; dose 12.5 mg/kg): 4 | MES screen 4 h: number of rats out of 4 which were protected (rats [4]; dose 12.5 mg/kg): 4 | MES screen ED50 (rats [4]): 5.65 mg/kg | number of rats protected in the scPTZ screen (rats [6]; [7]): 1/4 | number of rats protected in the scPTZ screen (rats [6]; [8]): 1/4 | number of rats protected in the scPTZ screen (rats [6]; [11]): 1/4 | neurotoxicity screen TD50 (rats [5]): >500 mg/kg

Cc1cccc(Oc2ccc(C=NNC(N)=O)cc2)c1 [Compound 5o]
side effect in the scPTZ screen at the end of the 4 hours (mice [2]; intraperitoneal injection into mice, 300 mg/kg): continuous seizure activity followed by death | MES screen 0.5 h: number of rats out of 4 which were protected (rats [4]; dose 12.5 mg/kg): 4 | MES screen 1 h: number of rats out of 4 which were protected (rats [4]; dose 12.5 mg/kg): 4 | MES screen 2 h: number of rats out of 4 which were protected (rats [4]; dose 12.5 mg/kg): 3 | MES screen 4 h: number of rats out of 4 which were protected (rats [4]; dose 12.5 mg/kg): 2 | MES screen ED50 (rats [4]): 3.07 mg/kg | neurotoxicity screen TD50 (rats [5]): >500 mg/kg

CCCCc1ccc(Oc2ccc(C=NNC(N)=O)cc2)cc1 [Compound 5r]
MES screen ED50 (mice [1]): 13.36 mg/kg | acPTZ screen ED50 (mice [2]): 86.93 mg/kg | neurotoxicity screen TD50 (mice [3]; [10]): 131.27 mg/kg | MES screen 0.5 h: number of rats out of 4 which were protected (rats [4]; dose 12.5 mg/kg): 2 | MES screen 1 h: number of rats out of 4 which were protected (rats [4]; dose 12.5 mg/kg): 2 | MES screen 2 h: number of rats out of 4 which were protected (rats [4]; dose 12.5 mg/kg): 3 | MES screen 4 h: number of rats out of 4 which were protected (rats [4]; dose 12.5 mg/kg): 4 | MES screen ED50 (rats [4]): 3.21 mg/kg | number of rats protected in the scPTZ screen (rats [6]; [8]): 1/4 | number of rats protected in the scPTZ screen (rats [6]; [11]): 2/4 | number of rats protected in the scPTZ screen (rats [6]; [9]): 1/4 | neurotoxicity screen TD50 (rats [5]): >3.22 mg/kg
